Data: PubChem BioAssay (NCI)
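Five concentrations, 48 hours, 96-well plates. GI50 = concentration required for 50% inhibition of growth. TGI marks complete inhibition of growth.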

How the values were obtained:
Experiment in all cases: growth of human tumour cells (NCI), 48 h
[1] = system: MOLT-4 leukemia
[2] = system: TK-10 renal
[3] = system: MDA-MB-435
[4] = system: K-562 leukemia
[5] = system: DU-145 prostate
[6] = system: PC-3 prostate
[7] = system: UACC-62 melanoma
[8] = system: EKVX NSCLC
[9] = system: OVCAR-4 ovarian
[10] = system: SNB-75 CNS

CC(=O)Nc1ccc(-c2cc(C(=O)O)c3cc4ccccc4cc3n2)cc1
TGI [1]: > 100 µM | TGI [2]: > 100 µM | TGI [3]: > 100 µM | TGI [4]: > 100 µM | TGI [5]: > 100 µM | TGI [6]: > 100 µM | TGI [7]: > 100 µM | TGI [8]: > 100 µM | TGI [9]: > 100 µM | TGI [10]: > 100 µM

N=C1C(O)C2(I)c3ccccc3N3C(=N)C(O)C4c5ccccc5N1C4C32 (stereo not given)
TGI [1]: > 100 µM | TGI [2]: > 100 µM | TGI [3]: 37.9 µM | TGI [4]: > 100 µM | TGI [5]: > 100 µM | TGI [6]: > 100 µM | TGI [7]: > 100 µM | TGI [8]: > 100 µM | TGI [9]: 30.1 µM | TGI [10]: > 100 µM

CCOC(=O)Oc1c(OC)cc(C(=O)c2ccc(OC)c(O)c2OC)cc1OC
GI50 [1]: 492 nM | TGI [1]: > 100 µM | GI50 [2]: > 100 µM | TGI [2]: > 100 µM | GI50 [3]: 288 nM | TGI [3]: 1.01 µM | GI50 [4]: 416 nM | TGI [4]: > 100 µM | GI50 [5]: 0.885 µM | TGI [5]: > 100 µM | GI50 [6]: 562 nM | TGI [6]: > 100 µM | GI50 [7]: 3.82 µM | TGI [7]: > 100 µM | GI50 [8]: 2.54 µM | TGI [8]: > 100 µM | GI50 [9]: 6.04 µM | TGI [9]: > 100 µM | GI50 [10]: 534 nM | TGI [10]: > 100 µM

c1ccc(-c2nc(-c3ccccn3)nc(-c3ccccn3)n2)nc1
GI50 [1]: 21200 nM | TGI [1]: > 100 µM | GI50 [2]: 45.5 µM | TGI [2]: > 100 µM | GI50 [3]: 41300 nM | TGI [3]: > 100 µM | GI50 [4]: 19400 nM | TGI [4]: > 100 µM | GI50 [5]: 48.9 µM | TGI [5]: > 100 µM | GI50 [6]: 48100 nM | TGI [6]: > 100 µM | GI50 [7]: 28 µM | TGI [7]: > 100 µM | GI50 [8]: 17 µM | TGI [8]: > 100 µM | GI50 [9]: 18.6 µM | TGI [9]: > 100 µM | GI50 [10]: > 100000 nM | TGI [10]: > 100 µM

O=C(O)c1nc(NCc2nc3cc(Cl)ccc3o2)n[nH]1
GI50 [1]: > 100000 nM | TGI [1]: > 100 µM | GI50 [2]: > 100 µM | TGI [2]: > 100 µM | GI50 [3]: > 100000 nM | TGI [3]: > 100 µM | GI50 [4]: > 100000 nM | TGI [4]: > 100 µM | GI50 [5]: > 100 µM | TGI [5]: > 100 µM | GI50 [6]: > 100000 nM | TGI [6]: > 100 µM | GI50 [7]: > 100 µM | TGI [7]: > 100 µM | GI50 [8]: > 100 µM | TGI [8]: > 100 µM | GI50 [9]: > 100 µM | TGI [9]: > 100 µM | GI50 [10]: > 100000 nM | TGI [10]: > 100 µM

CN(C)c1cc2ccccc2oc1=O
TGI [1]: > 100 µM | TGI [2]: > 100 µM | TGI [3]: > 100 µM | TGI [4]: > 100 µM | TGI [5]: > 100 µM | TGI [6]: > 100 µM | TGI [7]: > 100 µM | TGI [8]: > 100 µM | TGI [9]: > 100 µM | TGI [10]: > 100 µM

O=S(=O)(Nc1ccc(Br)cc1)c1ccc(-c2cnc(C3CC3)o2)cc1
GI50 [1]: 2160 nM | TGI [1]: 24.2 µM | GI50 [2]: 5.36 µM | TGI [2]: 21.5 µM | GI50 [3]: 239 nM | TGI [3]: 0.646 µM | GI50 [4]: 410 nM | TGI [4]: > 100 µM | GI50 [5]: 3.8 µM | TGI [5]: 17.4 µM | GI50 [6]: 2670 nM | TGI [6]: 15.5 µM | GI50 [7]: 1.39 µM | TGI [7]: 13.7 µM | GI50 [8]: 3.39 µM | TGI [8]: 17.5 µM | GI50 [9]: 3.8 µM | TGI [9]: 18 µM | GI50 [10]: 518 nM | TGI [10]: 3.35 µM
